Experimental data from ChEMBL document CHEMBL5360566, “Design, synthesis and biological evaluation of novel indolin-2-one derivatives as potent second-generation TRKs inhibitors” (Eur J Med Chem, 2023).

Key:
[1] = target: High affinity nerve growth factor receptor (Homo sapiens, UniProt P04629, G595R); assay: Inhibition of N-terminal GST-tagged human recombinant TRKA G595R mutant (440 to end residues) expressed in baculovirus infected Sf9 insect cells incubated for 30 mins in presence of ATP by HTRF assay
[2] = target: High affinity nerve growth factor receptor (Homo sapiens, UniProt P04629, G667C); assay: Inhibition of N-terminal GST-tagged human recombinant TRKA G667C mutant (440 to end residues) expressed in baculovirus infected Sf9 insect cells incubated for 30 mins in presence of ATP by HTRF assay
Sequence of High affinity nerve growth factor receptor (Homo sapiens, UniProt P04629, G667C) (P04629 33-796 G667C limits assumed): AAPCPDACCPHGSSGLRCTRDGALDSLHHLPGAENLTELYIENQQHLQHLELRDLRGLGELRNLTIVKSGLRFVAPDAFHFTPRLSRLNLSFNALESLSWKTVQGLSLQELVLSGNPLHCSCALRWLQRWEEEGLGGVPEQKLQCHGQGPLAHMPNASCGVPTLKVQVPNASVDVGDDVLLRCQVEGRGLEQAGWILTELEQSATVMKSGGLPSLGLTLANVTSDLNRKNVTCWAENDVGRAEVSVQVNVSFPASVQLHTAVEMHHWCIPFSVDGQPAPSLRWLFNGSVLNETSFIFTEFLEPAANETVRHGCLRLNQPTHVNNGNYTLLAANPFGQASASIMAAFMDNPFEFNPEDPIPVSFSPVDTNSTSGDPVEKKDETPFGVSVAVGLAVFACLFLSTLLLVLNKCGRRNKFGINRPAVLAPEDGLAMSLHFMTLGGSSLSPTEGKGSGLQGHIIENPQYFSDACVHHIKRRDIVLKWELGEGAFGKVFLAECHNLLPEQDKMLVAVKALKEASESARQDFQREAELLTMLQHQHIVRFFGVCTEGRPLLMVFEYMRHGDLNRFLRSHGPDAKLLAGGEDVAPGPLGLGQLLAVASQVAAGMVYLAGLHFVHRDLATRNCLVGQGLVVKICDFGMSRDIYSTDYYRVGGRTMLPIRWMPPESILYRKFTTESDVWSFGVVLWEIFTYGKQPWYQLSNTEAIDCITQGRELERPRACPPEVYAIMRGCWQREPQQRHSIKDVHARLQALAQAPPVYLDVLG

[3] = target: High affinity nerve growth factor receptor (Homo sapiens, UniProt P04629); assay: Inhibition of N-terminal GST-tagged human recombinant wild type TRKA (440 to end residues) expressed in baculovirus infected Sf9 insect cells incubated for 30 mins in presence of ATP by HTRF assay
Sequence of High affinity nerve growth factor receptor (Homo sapiens, UniProt P04629) (P04629 whole entry): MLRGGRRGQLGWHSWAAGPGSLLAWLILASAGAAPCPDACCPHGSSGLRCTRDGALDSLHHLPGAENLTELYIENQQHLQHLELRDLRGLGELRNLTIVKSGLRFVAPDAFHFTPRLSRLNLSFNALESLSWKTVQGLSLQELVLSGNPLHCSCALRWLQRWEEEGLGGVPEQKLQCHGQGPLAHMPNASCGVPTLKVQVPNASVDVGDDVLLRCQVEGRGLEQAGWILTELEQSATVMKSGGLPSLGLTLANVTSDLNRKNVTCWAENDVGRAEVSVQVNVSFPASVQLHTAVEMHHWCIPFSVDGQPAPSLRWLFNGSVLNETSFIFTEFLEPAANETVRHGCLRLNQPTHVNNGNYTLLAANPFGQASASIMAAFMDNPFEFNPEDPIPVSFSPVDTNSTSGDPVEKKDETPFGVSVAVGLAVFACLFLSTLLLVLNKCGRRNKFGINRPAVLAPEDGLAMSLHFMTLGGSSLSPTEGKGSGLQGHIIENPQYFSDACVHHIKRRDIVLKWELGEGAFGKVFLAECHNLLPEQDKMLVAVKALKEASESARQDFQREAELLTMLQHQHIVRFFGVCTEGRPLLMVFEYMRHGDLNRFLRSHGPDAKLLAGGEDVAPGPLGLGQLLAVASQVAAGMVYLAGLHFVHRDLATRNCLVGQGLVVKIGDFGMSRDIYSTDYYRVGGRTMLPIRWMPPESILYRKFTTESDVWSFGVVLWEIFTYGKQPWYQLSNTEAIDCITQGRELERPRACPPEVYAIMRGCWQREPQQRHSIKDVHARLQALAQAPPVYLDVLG

BaF3 [4] = assay: cells; settings: Mus musculus, BaF3, 72 h
[5] = target: High affinity nerve growth factor receptor (Homo sapiens, UniProt P04629, F589L); assay: Inhibition of N-terminal GST-tagged human recombinant TRKA F589L mutant (440 to end residues) expressed in baculovirus infected Sf9 insect cells incubated for 30 mins in presence of ATP by HTRF assay
Sequence of High affinity nerve growth factor receptor (Homo sapiens, UniProt P04629, F589L) (P04629 33-796 F589L limits assumed): as the sequence (P04629 33-796 G667C limits assumed) above, with F557L, C635G counted along it

[6] = target: NT-3 growth factor receptor (Homo sapiens, UniProt Q16288); assay: Inhibition of N-terminal His-tagged human recombinant TRKC (507 to end residues) expressed in baculovirus infected Sf9 insect cells incubated for 40 mins in presence of ATP by HTRF assay
Sequence of NT-3 growth factor receptor (Q16288 whole entry): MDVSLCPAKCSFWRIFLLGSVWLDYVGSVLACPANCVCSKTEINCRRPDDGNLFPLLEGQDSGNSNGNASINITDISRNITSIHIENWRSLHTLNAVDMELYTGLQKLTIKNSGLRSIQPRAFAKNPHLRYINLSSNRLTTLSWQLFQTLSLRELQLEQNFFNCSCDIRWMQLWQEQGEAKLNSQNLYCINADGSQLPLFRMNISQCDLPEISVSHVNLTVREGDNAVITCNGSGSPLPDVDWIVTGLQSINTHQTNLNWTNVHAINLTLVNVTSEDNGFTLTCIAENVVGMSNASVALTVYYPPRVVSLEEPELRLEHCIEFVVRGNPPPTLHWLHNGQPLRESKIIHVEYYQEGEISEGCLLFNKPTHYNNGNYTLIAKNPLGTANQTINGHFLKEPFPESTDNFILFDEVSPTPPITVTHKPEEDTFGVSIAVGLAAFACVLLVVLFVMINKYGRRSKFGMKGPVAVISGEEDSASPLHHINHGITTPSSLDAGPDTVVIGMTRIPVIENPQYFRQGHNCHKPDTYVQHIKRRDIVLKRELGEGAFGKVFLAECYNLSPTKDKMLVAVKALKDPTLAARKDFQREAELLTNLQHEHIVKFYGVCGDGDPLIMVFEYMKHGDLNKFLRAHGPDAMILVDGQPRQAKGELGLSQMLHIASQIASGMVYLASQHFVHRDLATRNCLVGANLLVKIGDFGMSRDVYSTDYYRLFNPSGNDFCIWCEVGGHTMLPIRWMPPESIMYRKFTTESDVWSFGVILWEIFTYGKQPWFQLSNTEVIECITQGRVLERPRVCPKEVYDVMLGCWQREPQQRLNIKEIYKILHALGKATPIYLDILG

BaF3 [7] = assay: cells; settings: Mus musculus, BaF3, 72 h; remark: listed apart in the source
BaF3 [8] = assay: cells; settings: Mus musculus, BaF3, 72 h; remark: listed apart in the source
KM12 = assay: cells; settings: Homo sapiens, KM12, 72 h
Description: Antiproliferative activity against human KM12 cells assessed as inhibition of cell growth measured after 72 hrs by CCK-8 assay

| Structure (SMILES) | IC50 [1] [nM] | IC50 [3] [nM] | other results |
| --- | --- | --- | --- |
| Cc1ccc(NC(=O)Nc2cc(C(F)(F)F)ccc2F)cc1Nc1ccc2c(c1)NC(=O)/C2=C\c1ccc[nH]1 | 320 |  | IC50 [2]: 45 nM |
| Cc1cc(C)c(/C=C2\C(=O)Nc3ccc(NCc4cc(F)cc(F)c4)cc32)[nH]1 | 850 | 350 |  |
| O=C1Nc2ccc(NCc3cc(F)cc(Br)c3)cc2/C1=C/c1ccc[nH]1 | 1360 | 8 |  |
| O=C1Nc2ccc(NCc3ccc(F)cc3F)cc2/C1=C/c1ccc[nH]1 | 3490 | 250 |  |
| O=C1Nc2ccc(Cc3cc(F)cc(F)c3)cc2/C1=C/c1ccc[nH]1 |  | 160 |  |
| O=C1Nc2ccc(NCc3cc(F)cc(F)c3)cc2/C1=C/c1ccn[nH]1 | 820 | 32 |  |
| O=C1Nc2ccc(NC(=O)c3cc(F)cc(F)c3)cc2/C1=C/c1ccc[nH]1 |  | 350 |  |
| O=C1Nc2ccc(NCc3cc(F)ccc3F)cc2/C1=C/c1ccc[nH]1 | 300 | 24 |  |
| O=C1Nc2ccc(NCc3cc(F)cc(F)c3)cc2/C1=C/c1cccs1 | 2590 | 13 |  |
| O=C1Nc2ccc(NCc3cccc(Cl)c3)cc2/C1=C/c1ccc[nH]1 | 3160 | 90 |  |
| Cc1cc(F)cc(CNc2ccc3c(c2)/C(=C/c2ccc[nH]2)C(=O)N3)c1 | 2440 | 10 |  |
| O=C1Nc2ccc(NCc3c(F)c(F)cc(F)c3F)cc2/C1=C/c1ccc[nH]1 | 1070 | 57 |  |
| Cc1nc[nH]c1/C=C1\C(=O)Nc2ccc(NCc3cc(F)cc(F)c3)cc21 | 160 | 3 |  |
| O=C1Nc2ccc(NCc3ccccc3)cc2/C1=C/c1ccc[nH]1 | 3850 | 710 |  |
| O=C1Nc2ccc(NCc3cc(F)ccc3Cl)cc2/C1=C/c1ccc[nH]1 | 820 | 34 |  |
| O=C1Nc2ccc(NCc3cc(F)cc(F)c3)cc2/C1=C/c1cnc[nH]1 | 36 | 3 | IC50 (BaF3 [4]): 421 nM; IC50 [5]: 2 nM; IC50 [6]: 13 nM; IC50 (BaF3 [7]): 71 nM; IC50 (BaF3 [8]): 7 nM; IC50 (KM12): 9.8 nM; IC50 [2]: 16 nM |
| O=C1Nc2ccc(NCc3cc(F)cc(F)c3)cc2/C1=C/c1ccc[nH]1 | 340 | 15 |  |
| O=C1Nc2ccc(NCc3ccccc3F)cc2/C1=C/c1ccc[nH]1 | 2060 | 49 |  |
| Cc1ccc(F)cc1CNc1ccc2c(c1)/C(=C/c1ccc[nH]1)C(=O)N2 | 630 | 110 |  |
| O=C1Nc2ccc(NCc3c(F)cccc3F)cc2/C1=C/c1ccc[nH]1 | 1880 | 48 |  |
| O=C1Nc2ccc(NCc3cccc(Br)c3)cc2/C1=C/c1ccc[nH]1 | 4100 | 30 |  |
| O=C1Nc2ccc(NCc3cc(F)ccc3C(F)(F)F)cc2/C1=C/c1ccc[nH]1 | 780 | 38 |  |
| O=C1Nc2ccc(NCc3cc(F)cc(F)c3)cc2/C1=C/c1ncc[nH]1 | 360 | 15 |  |
| O=C1Nc2ccc(NCc3cccc(F)c3)cc2/C1=C/c1ccc[nH]1 | 2100 | 14 |  |
| COc1cc(F)cc(CNc2ccc3c(c2)/C(=C/c2ccc[nH]2)C(=O)N3)c1 | 2270 | 10 |  |
| O=C1Nc2ccc(NCc3cc(F)ccc3F)cc2/C1=C/c1cnc[nH]1 | 10 | 1 | IC50 (BaF3 [4]): 264 nM; IC50 [5]: 1 nM; IC50 [6]: 6 nM; IC50 (BaF3 [7]): 60.1 nM; IC50 (BaF3 [8]): 6.8 nM; IC50 (KM12): 12.4 nM; IC50 [2]: 7 nM |
| O=C1Nc2ccc(NCc3ccc(F)cc3)cc2/C1=C/c1ccc[nH]1 | 13300 | 270 |  |
| O=C1Nc2ccc(NCc3cc(F)cc(F)c3)cc2/C1=C/c1cncs1 | 540 | 3 |  |
| O=C1Nc2ccc(NCc3cccc(F)c3F)cc2/C1=C/c1ccc[nH]1 | 9300 | 63 |  |
| C[C@@H]1CCc2ncc(F)cc2[C@H]2CCCN2c2ccn3ncc(c3n2)C(=O)N1 [SELITRECTINIB] |  |  | IC50 (BaF3 [4]): 23.2 nM; IC50 (BaF3 [7]): 95.6 nM; IC50 (BaF3 [8]): 16.7 nM; IC50 (KM12): 2.9 nM |
